Patent publication US20050020567A1, “Method of treating bacterial infections using gemifloxacin or a salt thereof and a carbapenem antibacterial agent” (priority 2002, published 2005)
Where two headings read alike, the source gives them in different places.

What was measured:
Assay type in all cases: cell-based, Pseudomonas aeruginosa
P. aeruginosa 6168 = test: checkerboard titration, gemifloxacin and imipenem (MIC, FIC); conditions: for MIC: Pseudomonas aeruginosa, alone
Protocol: (§1) The combined effect of gemifloxacin and imipenem was investigated in P. aeruginosa by using a checkerboard titration method. The test organisms used in this study were all clinical isolates collected in Korea. The isolates were maintained frozen at −70° C. prior to testing.
(§2) Gemifloxacin was tested at 12 concentrations (0.016-32 μg/ml) and imipenem was tested at 11 concentrations (0.016-16 μg/ml). Gemifloxacin was dispensed alone in the first row and combined with imipenem in the remaining rows. Imipenem solution was also dispensed alone in the first row in the first column. Test strains were grown for 18 h in Mueller-Hinton Broth, and then these overnight cultures were diluted with the same fresh medium to the density of approximately 10^7 CFU/mL. The bacterial concentrations were determined by measuring optical density or turbidity of the suspension and were verified by standard colony counts on antibiotic-free agar plates. A diluted bacterial solution was applied to plates containing serially diluted antimicrobial agents to yield 5×10^5 CFU/mL. Plates were incubated at 35° C. for 18 hours.
(§3) Minimal inhibitory concentrations (MICs) for each separate drug were determined. For wells along the growth-no growth interface, synergy was determined by calculating the Fractional Inhibitory Concentration (FIC) index. The Fractional Inhibitory Concentration (FIC) indices were calculated using the following formula: FIC index=FICA+FICB=[A]/MICA+[B]/MICB Wherein: • FICA(or B), is the FIC of drug A (or B) • MICA (or B) is the MIC of the organism to drug A (or B) • A (or B) is concentration of drug A (or B) that is the lowest inhibitory concentration
(§4) The FIC indices were interpreted using the following criteria: • ≦0.5=Synergy; • >0.5-1.0=Additive; • >1.0-4.0=Indifference; • >4.0=Antagonism

P. aeruginosa 6140 = test: as above; conditions: for MIC: Pseudomonas aeruginosa, alone
Protocol: as §1, §2, §3, §4

P. aeruginosa PA018R = test: as above; conditions: for MIC: Pseudomonas aeruginosa, alone
Protocol: as §1, §2, §3, §4

P. aeruginosa ATCC 27853 = test: checkerboard titration, gemifloxacin and meropenem (MIC, FIC); conditions: for MIC: Pseudomonas aeruginosa
Protocol: Evaluation for synergistic activity was carried out by calculation of fractional inhibitory concentrations (FICs) according to the method of Eliopoulos et al (1996, Antimicrobial Combinations, Antibiotics in Laboratory Medicine, Victor Lorian, 4th Edition, pp 337-338, Baltimore, Md., Williams and Wilkins).
P. aeruginosa ATCC 27853 was obtained from the SmithKline Beecham Anti-Infectives Research Culture Collection and stored at −80° C. in 10% glycerol. Before testing, the isolate was passaged onto agar plates (trypticase soy agar containing 5% sheeps blood) from the frozen stock for two consecutive days. Cation adjusted Mueller Hinton broth (BBL, Cockeyville, Md.) was used for the isolate.
Checkerboard microtitre broth dilution plates were prepared using the Hamilton MicroLab AT Plus system (Reno, Nev.). Two-fold serial dilutions (50 μl) of meropenem were made in columns 1 through 11 of a microtitre plate. Two-fold serial dilutions of gemifloxicin were prepared manually and the MicroLab AT Plus was used to dispense 25 μl of gemifloxacin at each concentration into rows A through G of the microtitre plate. The concentration range tested varied for each drug/organism combination to encompass the MIC endpoints of the individual components. Column 12 contained two fold serial dilutions of gemifloxacin only, and row H contained two fold serial dilutions of meropenem only. The last well (H) in column 12 was used as a positive growth control well, containing only medium and test isolate.
The bacteria were diluted to a 0.5 McFarland standard and then further diluted 1/50. Each well was inoculated with 25 μl of the isolate to give a final inoculum density of approximately 5×10^5 cfu/ml. The MicroLab AT Plus 2 was used to add the inoculum to the microtitre plates. After inoculation, the plates were covered with a 96 well microtitre plate lid and incubated at 35° C. in ambient air for 20-24 hours. A 10 μl aliquot of the inoculum was plated on trypticase soy agar containing 5% sheep blood to determine the purity of the final test inoculum.
Following incubation, a microtitre mirror reader (Cooke Instruments Ltd., England) was used to assist in determining the microdilution MIC endpoints. The MIC was determined as the lowest concentration of compound that inhibited visible growth of the organism.
The Fractional Inhibitory Concentrations (FICs) were calculated using the following formula: (A)/(MIC A)+(B)/(MIC B)=FIC A+FIC B=FIC Index wherein: • A is the MIC of drug A in the presence of drug B • B is the MIC of drug B in the presence of drug A • MIC A is the MIC of the organism to drug A alone • MIC B is the MIC of the organism to drug B alone • FIC A is the fractional inhibitory concentration of drug A • FIC B is the fractional inhibitory concentration of drug B

[1] = gemifloxacin in combination with imipenem
[2] = imipenem in combination with gemifloxacin

## CO/N=C1\CN(c2nc3c(cc2F)c(=O)c(C(=O)O)cn3C2CC2)CC1CN (racemic) [gemifloxacin, (R,S)-7-(3-aminomethyl-4-methoxyiminopyrrolidin-1-yl)-1-cyclopropyl-6-fluoro-4-oxo-1,4-dihydro-1,8-naphthyridine-3-carboxylic acid]
P. aeruginosa 6168; FIC of gemifloxacin
  FICA: 0.13
P. aeruginosa 6168; read-out: gemifloxacin MIC
  MIC: 0.5 µg/mL
P. aeruginosa 6168; [1]
  Cgemifloxacin MIC: 0.0625 µg/mL
P. aeruginosa 6140; FIC of gemifloxacin
  FICA: 0.25
P. aeruginosa 6140; read-out: gemifloxacin MIC
  MIC: 8 µg/mL
P. aeruginosa 6140; [1]
  Cgemifloxacin MIC: 2 µg/mL
P. aeruginosa PA018R; FIC of gemifloxacin
  FICA: 0.25
P. aeruginosa PA018R; read-out: gemifloxacin MIC
  MIC: 4 µg/mL
P. aeruginosa PA018R; [1]
  Cgemifloxacin MIC: 1 µg/mL
P. aeruginosa ATCC 27853; ATCC27853, in the presence of meropenem 0.125 μg/ml, read-out: gemifloxacin MIC
  MIC: 0.125 µg/mL
P. aeruginosa ATCC 27853; gemifloxacin alone
  gemifloxacin MIC: 0.5 µg/mL

## C[C@@H](O)[C@H]1C(=O)N2C(C(=O)O)=C(SCCN=CN)C[C@H]12 [imipenem]
P. aeruginosa 6168; FIC of imipenem
  FICB: 0.25
P. aeruginosa 6168; read-out: imipenem MIC
  MIC: 1 µg/mL
P. aeruginosa 6168; [2]
  Cimipenem MIC: 0.25 µg/mL
P. aeruginosa 6140; FIC of imipenem
  FICB: 0.25
P. aeruginosa 6140; read-out: imipenem MIC
  MIC: 4 µg/mL
P. aeruginosa 6140; [2]
  Cimipenem MIC: 1 µg/mL
P. aeruginosa PA018R; FIC of imipenem
  FICB: 0.06
P. aeruginosa PA018R; read-out: imipenem MIC
  MIC: 16 µg/mL
P. aeruginosa PA018R; [2]
  Cimipenem MIC: 1 µg/mL

## C[C@@H](O)[C@H]1C(=O)N2C(C(=O)O)=C(S[C@@H]3CN[C@H](C(=O)N(C)C)C3)[C@H](C)[C@H]12 [meropenem]
P. aeruginosa ATCC 27853; ATCC27853, in the presence of gemifloxacin 0.125 μg/ml, read-out: meropenem MIC
  MIC: 0.125 µg/mL
P. aeruginosa ATCC 27853; meropenem alone
  meropenem MIC: 0.5 µg/mL
